Assay results as given in PubChem BioAssay (NCI).
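Cells were grown in 96-well plates and exposed to each compound for 48 hours at five concentrations; endpoints were interpolated linearly between bracketing concentrations, or set to the highest concentration if not reached. Here, GI50 denotes the concentration required for 50% inhibition of growth. TGI: concentration producing complete growth inhibition.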

How the values were obtained:
Experiment in all cases: DTP human tumour cell line panel, 48 h
[1] = system: U251 CNS
[2] = system: SK-OV-3 ovarian
[3] = system: MDA-MB-231 breast
[4] = system: HT29 colon
[5] = system: NCI/ADR-RES ovarian
[6] = system: SF-295 CNS
[7] = system: UO-31 renal
[8] = system: SK-MEL-28 melanoma
[9] = system: SF-268 CNS
[10] = system: HOP-62 NSCLC

SMILES	TGI [1] [µM]	TGI [2] [µM]	TGI [3] [µM]	TGI [4] [µM]	TGI [5] [µM]	TGI [6] [µM]	TGI [7] [µM]	TGI [8] [µM]	TGI [9] [µM]	TGI [10] [µM]	GI50 [1] [µM]	GI50 [2] [µM]	GI50 [3] [µM]	GI50 [4] [µM]	GI50 [5] [µM]	GI50 [6] [µM]	GI50 [7] [µM]	GI50 [8] [µM]	GI50 [9] [µM]	GI50 [10] [µM]
COC1(CC[C@@H](C)COC2OC(CO)C(O)C(O)C2O)OC2C[C@H]3[C@@H]4CC[C@H]5C[C@@H](OC6OC(CO)C(OC7OC(CO)C(O)C(O)C7O)C(O)C6OC6OC(C)C(O)C(O)C6O)[C@H](O)C[C@]5(C)[C@H]4CC[C@]3(C)C2[C@@H]1C (stereo not given in full)	3.49	3.28	3.66	4.99	> 20.6	3.28	3.31	3.37	3.99	3.69										
CN1CCN(C(=O)c2cn(Cc3cncn3Cc3ccc4c(c3)OCO4)cc2-c2cccc3ccccc23)CC1	> 100	> 100	33.3	> 95.5	> 100	70.6	> 100	63.6	66.5	> 100										
NC(=O)[C@H](Cc1ccc(O)cc1)Nc1c(O)c2c(c(O)c1Cl)C(=O)C=CC2=O	> 8.11	> 10	5.23	6.2	> 7.25	> 10	> 6.36	4.64	> 10	> 10										
CC(O)c1nc(C#N)c(N)o1 (stereo not given)	> 100	> 100	> 100	> 100	> 100	> 100	> 100	> 100	> 100	> 100										
O=C(O)C(Cc1ccccc1)NCc1c(O)ccc2c(-c3ccccc3)cc(=O)oc12 (stereo not given)	> 100	> 100	> 100	> 100	> 100	> 100	> 100	> 100	> 100	> 100										
COC(=O)c1c2c(cc3c1CC1(Cc4cc5c(c(C=O)c4C1)CCC5)C3)CCC2 (stereo not given)	57.3	> 100	91.7	79.2	> 100	> 100	71.8	> 100	> 100	> 100										
N#Cc1c(NC(=S)Nc2ccc(Cl)cc2)sc2c1CCN(N1CCc3c(sc(NC(=S)Nc4ccc(Cl)cc4)c3C#N)C1)C2	86.2	> 100	27.2	26.5	> 100	50.4	59.9	> 100	> 100	55.2										
O=P1(N(CCCl)CCCl)Oc2ccc(Cl)cc2C(C(Cl)(Cl)Cl)c2cc(Cl)ccc2O1 (stereo not given)	29.2	> 100	44.4	18.9	> 100	23.7	> 100	> 100	> 100	27.9										
COc1cc(CCNC2=CC(=O)c3nc[nH]c3C2=O)ccc1O	63.3	90.2	> 100	53.9	> 100	96.4	> 100	60.4	> 100	> 100										
Nc1c(C(=O)c2ccc(Cl)c(Cl)c2)[nH]c(NCc2ccccc2)c1C(=S)Nc1ccccc1	15.7	32.2	17.6	11	4.72	15	21.6	18.9	31.5	34.7										
COc1ccc(N2C(=O)C3c4[nH]c5c(C)cccc5c4C4CCC(C(C)C)CC4C3C2=O)cc1 (stereo not given)	29.9	47.7	34.8	13.8	51.1	38.3	31.4	31.5	22	22.7										
C=C(Br)CN=CN(C)C	> 100	> 100	> 100	> 100	> 100	> 100	> 100	> 100	> 100	> 100										
COc1ccc(CCNC(=O)Cc2ccccc2CO)cc1OC	> 100	> 100	> 100	> 100	> 100	> 100	> 100	> 100	> 100	> 100										
CC1=C(C)C(=O)C(C2=CC(=O)c3ccccc3C2=O)=C(C2=CC(=O)c3ccccc3C2=O)C1=O	> 45.3	45.8	13.4	28.7	> 100	> 55.2	25.4	23.5	> 55.1	33.4										
O=C(Nc1ccccc1)N1CCN(C(=O)Nc2ccccc2)C1=S	> 100	76.3	> 100	> 100	> 100	58.4	60.7	> 100	47.8	67.9										
CC(=O)n1[nH]c(=O)n(-c2ccc(Cl)cc2)c1=O	> 100	> 100	> 100	> 100	> 100	> 100	> 100	> 100	> 100	> 100										
Clc1ccc2c(c1)N(CCCN1CCCC13CCCCC3)c1ccccc1S2	23.6	57.7	21.5	15.7	44.5	29.2	22.4	30.3	> 58.7	33.4										
O=CCCCCCOCc1ccccc1	> 100	> 100	> 100	> 100	> 100	> 60.4	> 100	> 100	> 100	79.9										

SMILES	TGI [1] [µM]	TGI [2] [µM]	TGI [3] [µM]	TGI [4] [µM]	TGI [5] [µM]	TGI [6] [µM]	TGI [7] [µM]	TGI [8] [µM]	TGI [9] [µM]	TGI [10] [µM]	GI50 [1] [µM]	GI50 [2] [µM]	GI50 [3] [µM]	GI50 [4] [µM]	GI50 [5] [µM]	GI50 [6] [µM]	GI50 [7] [µM]	GI50 [8] [µM]	GI50 [9] [µM]	GI50 [10] [µM]
CCC1(c2ccc(N3C(=O)c4cccc5cc([N+](=O)[O-])cc(c45)C3=O)cc2)CCC(=O)NC1=O (stereo not given)	23.8	39.5	21.4	> 100	79.8	41.4	27.7	86.8	51.8	26.9										
FC1=C2C3CCC(C3)C2C1(F)F (stereo not given)	> 100	> 100	> 100	> 100	> 100	> 100	> 100	> 100	> 100	> 100										
Oc1ccc(C(O)C2CCCCN2)cc1O (stereo not given)	> 100	> 100	> 100	> 100	> 100	> 100	> 100	> 100	> 100	> 100										
Cc1cn(CCCCCCOC(=O)NC(CCCNC(N)=O)C(=O)O)c(=O)[nH]c1=O (stereo not given)	> 100	> 100	> 100	> 100	> 100	> 100	> 100	> 100	> 100	> 100										
CCOC(=O)NC(=S)N(CC(=O)c1cc(OC)c(OC)c(OC)c1)c1ccc(Cl)cc1	> 100	> 100	> 100	> 100	> 100	> 100	> 100	> 100	> 100	> 100	99.7	> 100	45.9	> 100	56.5	76.7	48.9	75.8	> 100	> 100
COC(=O)c1sc(=O)sc1SCc1cccc(CSc2sc(=O)sc2C(=O)OC)c1	34.3	51.4	67.4	> 100	> 100	> 100	> 100	> 100	86.1	35.7										
CC(=O)CC1(CBr)Nc2ccc([N+](=O)[O-])cc2NC1=O (stereo not given)	> 100	> 100	> 100	> 100	> 100	> 100	> 100	> 100	> 100	> 100										
O=C1NC(O)c2cc3ccccc3cc2O1 (stereo not given)	87.3	> 100	> 100	> 100	> 100	> 100	> 100	> 100	> 100	> 100										
Clc1ccc2c(NCCCCCCNc3ccnc4cc(Cl)ccc34)ccnc2c1	5.82	17.5	10.2	4.44	27.9	5.56	10.6	9.78	24.8	13.8										
CCOC(=O)c1c(-c2ccc(OC)cc2)ccn1C	> 10	> 10	> 10	> 10	> 10	> 10	> 10	> 10	> 10	> 10										
COc1cccc2c1C(=O)c1c(O)c3c(c(O)c1C2=O)C[C@@](O)(C(C)=O)CC3OC1CC(OC2CC(N)C(O)C(C)O2)C(O)C(C)O1 (stereo not given in full)	> 87.6	> 100	> 100	> 100	> 100	> 100	> 100	> 100	> 100	> 100										
Cn1/c(=N\N=C2\C=C3CCCCC3(C)CC2)sc2ccccc21 (stereo not given)	> 100	> 100	> 100	> 100	> 100	> 100	> 100	> 100	> 100	> 100										
CCN1CC2(C)CCC(OC)C34C5CC6CCC(O)(C5C(=O)O6)C(C(O)C23)C14 (stereo not given)	> 100	> 100	> 100	> 100	> 100	> 100	> 100	> 100	> 100	> 100										
O=S(=O)(Nc1nc2ccccc2nc1N1CCCCCC1)c1ccccc1	48.8	89.6	> 100	> 100	> 100	70	33.9	> 100	> 100	84.5										
ClC1=NN=C(c2c[nH]c3ccccc23)CC1NCc1ccccc1 (stereo not given)	> 100	> 100	> 100	> 100	> 100	> 100	> 100	> 100	> 100	> 100										
CC(=O)NC1C(OCc2ccccc2)OC(CO)C(O)C1OC(C)C(=O)N[C@@H](C)C(=O)N[C@H](CCC(=O)NCCNCCNc1c2ccccc2nc2cccc([N+](=O)[O-])c12)C(N)=O (stereo not given in full)	3.41	2.05	0.639	0.668	10.6	1.79	0.607	0.723	2.14	5.17										
O=C1Nc2ccccc2/C1=C\c1c(Cl)n(-c2ccccc2)c2ccccc12	18.2	24	13.7	6.46	8.67	15.6	16	> 100	6.45	20.6										
O=c1[nH]c(=O)n(COC(CO)CO)cc1-c1ccccc1	> 100	> 100	> 100	> 100	> 100	> 100	> 100	> 100	> 100	> 100										
